Test results reported in patent publication US12281205B2, “Modified antibacterial compositions and methods” (priority 2016, dated 2025).
≈ marks a conversion by molar mass, not a printed value. Where “and” joins values, the source holds several entries; their conditions need not be identical. Equal entries are not always repeated. Where two headings read alike, the source gives them in different places. Where no end group is shown, it is not given here.

Columns and labels:
[1] = test system: MDR A. baumannii (FADDI-AB156); experiment: Antibiogram of MDR A. baumannii; type: cell-based, Acinetobacter baumannii; conditions: for Susceptibility: CLSI resistant breakpoints
[2] = test system: MDR P. aeruginosa (FADDI-PA067); experiment: Antibiogram of MDR P. aeruginosa; type: cell-based, Pseudomonas aeruginosa; conditions: for Susceptibility: CLSI resistant breakpoints
[3] = test system: CMDR A. baumannii (FADDI-AB156); experiment: Mouse peritonitis model; type: in vivo, C57BL/6 mice; conditions: 24 h infection
E. coli = experiment: Minimum inhibitory concentration (MIC), broth microdilution; type: cell-based; conditions: Escherichia coli
Procedure: The MICs of the PAMAM dendrimers were determined using a broth microdilution method. After the preparation of a dilution series of each compound and the addition of bacterial cells (Note: steps identical to that taken for the measurement of MBC), the optical density readings of each well at 630 nm were measured as a function of time using a microplate reader (Multiskan Ascent, Pathtech Pty. Ltd.). Positive controls containing cells alone were incorporated. Optical density was plotted against polymer concentration and linear regression analysis was used to determine the lowest concentration (MIC) at which the optical density reading becomes zero. A minimum of two independent experiments (biological replicates) of the assay were conducted and two technical replicates were used in each experiment for each bacterium, polymer, and concentration. Data is expressed as mean±standard deviation (SD) of the biological replicates and analysed using student's t-test.

[4] = test system: sheep red blood cells (RBCs); experiment: Hemolysis assay
Procedure: Fresh sheep red blood cells (RBCs) were diluted 1 in 20 in PBS (pH 7.4), pelleted by centrifugation, and washed three times in PBS (1000 g, 10 min). The RBCs were counted using a cell counter (Coulter Particle Counter Z series, Beckman Coulter) and diluted to a final concentration of 2×10^7 cells/mL. 100 μL aliquots of the RBC solution were seeded into a V-bottomed 96-well plate containing 100 μL of test compound solution of varying concentrations (4-256 μg/mL) and incubated in a humidified atmosphere containing 5% CO2 at 37° C. for 2 h. Following incubation, the 96-well plate was centrifuged (1000 g, 10 min) and aliquots (100 μL) of supernatant were transferred to a flat-bottomed 96-well plate. Hemoglobin release upon lysis of the RBCs was monitored at 405 nm using a microplate reader (PerkinElmer 1420 Multilabel Counter VICTOR^3). Positive and negative controls for hemolysis were taken as RBC lysed with 0.5% Triton X-100 (1:1 v/v) and RBC suspension in PBS, respectively. The percentage of hemolysis was calculated using the following formula:
The percentage hemolysis was plotted against peptide polymer concentration and linear regression analysis was used to determine the hemolytic concentration needed to lyse 50% (HC50) of RBCs. Two independent runs of the assay were conducted and two replicates were used in each run for each compound and concentration.
Fresh sheep red blood cells (RBCs) were diluted 1 in 20 in PBS (pH 7.4), pelleted by centrifugation, and washed three times in PBS (1000 g, 10 min). The RBCs were counted using a cell counter (Coulter Particle Counter Z series, Beckman Coulter) and diluted to a final concentration of 2×10^7 cells/mL. 100 μL aliquots of the RBC solution were seeded into a V-bottomed 96-well plate containing 100 μL of polypeptide solution of varying concentrations (4-256 μg/mL) and incubated in a humidified atmosphere containing 5% CO2 at 37° C. for 2 h. Following incubation, the 96-well plate was centrifuged (1000 g, 10 min) and aliquots (100 μL) of supernatant were transferred to a flat-bottomed 96-well plate. Hemoglobin release upon lysis of the RBCs was monitored at 405 nm using a microplate reader (PerkinElmer 1420 Multilabel Counter VICTOR3). Positive and negative controls for hemolysis were taken as RBC lysed with 0.5% Triton X-100 (1:1 v/v) and RBC suspension in PBS, respectively. The percentage of hemolysis was calculated using the following formula:
The percentage hemolysis was plotted against polypeptide concentration and linear regression analysis was used to determine the hemolytic concentration needed to lyse 50% (HC50) of RBCs. Two independent runs of the assay were conducted and two replicates were used in each run for each polypeptide and concentration.

E. coli (ATCC 25922) = experiment: Minimum bactericidal concentration (MBC); type: cell-based, Escherichia coli; design: unit not given here; conditions: MHB
Description: (§1) The number of colony-forming units (CFU) was counted and expressed as CFU/mL. Positive controls consisting of cells without any treatment were used.
as §1

[5] = test system: P. aeruginosa (ATCC 47085); experiment: Minimum bactericidal concentration (MBC); type: cell-based, Pseudomonas aeruginosa; design: unit not given here; conditions: MHB
Procedure: (§2) A dilution series of each compound was made by diluting test compound stock in media to a desired range of concentrations and a final volume of 100 μL in each well of a 96-well plate. Bacterial cells (which gave an optical density reading of ˜0.7 at 650 nm for E. coli, K. pneumoniae, P. aeruginosa, and S. aureus, ˜0.5 at 650 nm for A. baumannii and ˜1.8 at 650 nm for S. mutans) were diluted to 2.5×10^6 cells/mL in media and 100 μL of the bacteria solution was added to each well. The 96-well plate was then incubated at 37° C. for 90 min. For each well, microbial solution was diluted with saline (0.9% NaCl solution) using an appropriate dilution factor and placed on an agar plate (identical to that used for bacteria culture). For E. coli, K. pneumoniae, A. baumannii, and S. aureus, the agar plates were incubated overnight at room temperature, and then at 37° C. with aeration for 2 h. For P. aeruginosa and S. mutans, the agar plates were incubated at 37° C., with the former being incubated overnight with aeration and the latter in an anaerobic chamber for 48 h. The number of colony-forming units (CFU) was counted and expressed as CFU/mL. Positive controls consisting of cells without any treatment were used. […] Data is expressed as mean±standard deviation (SD) of the biological replicates and analysed using student's t-test. […]

[6] = test system: A. baumannii (ATCC 19606); experiment: Minimum bactericidal concentration (MBC); type: cell-based, Acinetobacter baumannii; design: unit not given here; conditions: MHB
Procedure: as §2

[7] = test system: K. pneumoniae (ATCC 13883); experiment: Minimum bactericidal concentration (MBC); type: cell-based, Klebsiella pneumoniae; design: unit not given here; conditions: MHB
Procedure: as §2

[8] = concentration giving 50% hemolysis, 2 h

`NCC[C@H](O)C(=O)N[C@@H]1C[C@H](N)[C@@H](O[C@H]2O[C@H](CN)[C@@H](O)[C@H](O)[C@H]2O)[C@H](O)[C@H]1O[C@H]1O[C@H](CO)[C@@H](O)[C@H](N)[C@H]1O` [Amikacin] was tested, and the Susceptibility [1] was “Resistant”.

For `CC1(C)S[C@@H]2[C@H](NC(=O)[C@H](N)c3ccccc3)C(=O)N2[C@H]1C(=O)O` [Ampicillin], the MIC ([1]; Acinetobacter baumannii) was no less than 91.6 µM and the Susceptibility [1] was “Resistant”.

For `C[C@H]1[C@H](NC(=O)/C(=N\OC(C)(C)C(=O)O)c2csc(N)n2)C(=O)N1S(=O)(=O)O` [Aztreonam], the Susceptibility [2] was “Resistant”.

For `Cc1nnc(SCC2=C(C(=O)O)N3C(=O)[C@@H](NC(=O)Cn4cnnn4)[C@H]3SC2)s1` [Cefazolin], the Susceptibility [1] was “Resistant”.

For `CO/N=C(\C(=O)N[C@@H]1C(=O)N2C(C(=O)[O-])=C(C[N+]3(C)CCCC3)CS[C@H]12)c1csc(N)n1` [Cefepime], the Susceptibility [1] was “Resistant”.

For `CO[C@@]1(NC(=O)Cc2cccs2)C(=O)N2C(C(=O)O)=C(COC(N)=O)CS[C@@H]21` [Cefoxitin], the Susceptibility [1] was “Resistant”.

`CC(C)(O/N=C(\C(=O)N[C@@H]1C(=O)N2C(C(=O)[O-])=C(C[n+]3ccccc3)CS[C@H]12)c1csc(N)n1)C(=O)O` [Ceftazidime] was tested, and the Susceptibility [1] was “Resistant” and the Susceptibility [2] was “Resistant”.

In the case of `CO/N=C(\C(=O)N[C@@H]1C(=O)N2C(C(=O)O)=C(CSc3nc(=O)c(=O)[nH]n3C)CS[C@H]12)c1csc(N)n1` [Ceftriaxone], the Susceptibility [1] is reported as “Resistant”.

`C[C@@H](O)[C@H]1C(=O)N2C(C(=O)O)=C(SCCN=CN)C[C@H]12` [Imipenem] gave an MIC ([1]; Acinetobacter baumannii) of no less than 214 µM and a survival [3] of 50%.

For `C[C@@H](O)[C@H]1C(=O)N2C(C(=O)O)=C(S[C@@H]3CN[C@H](C(=O)N(C)C)C3)[C@H](C)[C@H]12` [Meropenem], the Susceptibility [1] was “Resistant”.

`CCn1cc(C(=O)O)c(=O)c2ccc(C)nc21` [Nalidixic Acid] was tested, and the Susceptibility [1] was “Resistant”.

`CCn1cc(C(=O)O)c(=O)c2cc(F)c(N3CCNCC3)cc21` [Norfloxacin] was tested, and the Susceptibility [1] was “Resistant”.

`CCN1CCN(C(=O)N[C@@H](C(=O)N[C@@H]2C(=O)N3[C@@H]2SC(C)(C)[C@@H]3C(=O)O)c2ccccc2)C(=O)C1=O` [Piperacillin] was tested, and the Susceptibility [2] was “Resistant”.

In the case of `CC1(C)S[C@@H]2[C@H](NC(=O)[C@H](C(=O)O)c3ccsc3)C(=O)N2[C@H]1C(=O)O` [Ticarcillin], the Susceptibility [2] is reported as “Resistant”.

For `NC[C@H]1O[C@H](O[C@H]2[C@H](O)[C@@H](O[C@H]3O[C@H](CO)[C@@H](O)[C@H](N)[C@H]3O)[C@H](N)C[C@@H]2N)[C@H](N)C[C@@H]1O` [Tobramycin], the MIC ([1]; Acinetobacter baumannii) was no less than 34.2 µM, the Susceptibility [1] was “Resistant” and the Susceptibility [2] was “Resistant”.

For `COc1cc(Cc2cnc(N)nc2N)cc(OC)c1OC` [Trimethoprim], the Susceptibility [1] was “Resistant”.

Work on `C[C@H]1c2cccc(O)c2C(=O)C2=C(O)[C@]3(O)C(=O)C(C(N)=O)=C(O)[C@@H](N(C)C)[C@@H]3[C@@H](O)[C@@H]21` [doxycycline] yielded an MIC (E. coli) of 0.5 µg/mL (≈ 1.13 µM).

In the case of Amoxicillin/Clavulanic Acid, the MIC [1] is reported as no less than 87.6 µM and the Susceptibility [1] is reported as “Resistant”.

With Colistin Sulfate the MIC [1] was 13.8 µM, the Susceptibility [1] was “Resistant” and the “Susceptibility, concentration in parentheses” value [2] was greater than 110.8 µM. For the same compound, the Susceptibility [2] was “Resistant”.

With “GIGKFLHSAKKFGKAFVGEIMNS-NH2 [Magainin II]” the HC50 [4, 8] was 81.1 µM and the HC50 ([4]; extrapolated from FIG. 59) was 33 μg/mL and 81.1 μM.

For Gentamicin, the MIC [1] was no less than 33.5 µM, the Susceptibility [1] was “Resistant” and the Susceptibility [2] was “Resistant”.

For “Ovispirin: antimicrobial peptide NH2- KNLRRIIRKIIHIIKKYG-COOH (H-KNLRRIIRKIIHIIKKYG-OH; also: SNAPP conjugate)”, the MBC (E. coli (ATCC 25922)) was 8.39 ± 0.44, the MBC [5] was 95.49 ± 9.73 and the HC50 [4, 8] was 61.8 µM. The HC50 ([4]; extrapolated from FIG. 59) was 27 μg/mL and 61.8 μM, the MBC [6] was 2.21 ± 0.88 and the MBC [7] was 11.49 ± 4.86.

With Piperacillin/Tazobactam the MIC [1] was no less than 247.3 µM and the Susceptibility [1] was “Resistant”.

Ticarcillin/Clavulanic Aid was tested, and the MIC [1] was no less than 333.0 µM and the Susceptibility [1] was “Resistant”.

For Trimethoprim/Sulfamethoxazole, the MIC [1] was no less than 1102.2 µM and the Susceptibility [1] was “Resistant”.
